{
  "source": "PubChem BioAssay AID1259408",
  "about": "(Genetic Toxicology Data Bank (GENE-TOX), 2018)",
  "test_system": "GENE-TOX genotoxicity assays, various organisms and cells",
  "experiment": "GENE-TOX mutagenicity studies",
  "note": "Active and inactive are the calls of the source. The rule behind the calls is not given here.",
  "data": [
    {"compound": "O=c1[nH]c(=O)n([C@H]2C[C@H](O)[C@@H](CO)O2)cc1F", "values": [
      {"measurement": "mutagenic call", "setting": "Species/Cell Type: Aspergillus nidulans, Assay Type: Aneuploidy, chromosome aberrations, Assay Code: ASNT, Evaluation Type: Evaluation A (Pre-1980)", "result": "no conclusion"},
      {"measurement": "mutagenic call", "setting": "Species/Cell Type: Aspergillus nidulans, Assay Type: Mitotic recombination, Assay Code: ASG+, Evaluation Type: Evaluation A (Pre-1980)", "result": "active; positive"},
      {"measurement": "mutagenic call", "setting": "Species/Cell Type: Chinese hamster lung (V79) cells, Assay Type: Forward gene mutation at the HPRT or ouabain locus, Assay Code: V79-, Evaluation Type: Evaluation A (Pre-1980)", "result": "inactive; negative"},
      {"measurement": "mutagenic call", "setting": "Species/Cell Type: Drosophila melanogaster, Assay Type: Aneuploidy, sex chromosome gain, chromosome aberrations, Assay Code: DAG+F, Evaluation Type: Evaluation A (Pre-1980)", "result": "active; positive"},
      {"measurement": "mutagenic call", "setting": "Species/Cell Type: Drosophila melanogaster, Assay Type: Aneuploidy, whole sex chromosome loss, chromosome aberrations, Assay Code: DAC+F, Evaluation Type: Evaluation A (Pre-1980)", "result": "active; positive"},
      {"measurement": "mutagenic call", "setting": "Species/Cell Type: Drosophila melanogaster, Assay Type: Sex-linked recessive lethal gene mutation, Assay Code: SRLT, Evaluation Type: Evaluation A (Pre-1980)", "result": "no conclusion"},
      {"measurement": "mutagenic call", "setting": "Species/Cell Type: Escherichia coli polA (W3119 vs P3478), Assay Type: Rec-assay, DNA effects (bacterial DNA repair), Assay Code: RE1-, Evaluation Type: Evaluation A (Pre-1980)", "result": "inactive; negative"},
      {"measurement": "mutagenic call", "setting": "Species/Cell Type: Glycine max (soybean), Assay Type: Gene mutation, Assay Code: GLM+, Evaluation Type: Evaluation A (Pre-1980)", "result": "active; positive"},
      {"measurement": "mutagenic call", "setting": "Species/Cell Type: Human diploid fibroblasts, Assay Type: Unscheduled DNA synthesis (UDS) in vitro, DNA effects, Assay Code: UDH-, Evaluation Type: Evaluation A (Pre-1980)", "result": "inactive; negative"},
      {"measurement": "mutagenic call", "setting": "Species/Cell Type: Human lymphocytes, Assay Type: Sister-chromatid exchange (SCE) in vitro, Assay Code: SCLT, Evaluation Type: Evaluation B (Post-1980)", "result": "no conclusion"},
      {"measurement": "mutagenic call", "setting": "Species/Cell Type: Human, Assay Type: Sister-chromatid exchange (SCE) in vitro, Assay Code: SC1+, Evaluation Type: Evaluation B (Post-1980)", "result": "active; positive"},
      {"measurement": "mutagenic call", "setting": "Species/Cell Type: Mammalian polychromatic erythrocytes, Assay Type: Micronucleus test, chromosome aberrations, Assay Code: MNT+U, Dose Response: Unconfirmed positive response, Evaluation Type: Evaluation B (Post-1980)", "result": "active; positive"},
      {"measurement": "mutagenic call", "setting": "Species/Cell Type: Mouse (C3H/10T1/2) cells, Assay Type: Cell transformation, Assay Code: CTH+, Evaluation Type: Evaluation A (Pre-1980)", "result": "active; positive"},
      {"measurement": "mutagenic call", "setting": "Species/Cell Type: Neurospora crassa, Assay Type: Aneuploidy, chromosome aberrations, Assay Code: NEN-, Evaluation Type: Evaluation A (Pre-1980)", "result": "inactive; negative"},
      {"measurement": "call", "setting": "Species/Cell Type: Nonhuman, Assay Type: In vivo carcinogenicity studies, Assay Code: CCGT, Evaluation Type: Evaluation A (Pre-1980)", "result": "no conclusion"},
      {"measurement": "mutagenic call", "setting": "Species/Cell Type: Nonhuman, Assay Type: Sister-chromatid exchange (SCE) in vitro, Assay Code: SC2+, Evaluation Type: Evaluation B (Post-1980)", "result": "active; positive"},
      {"measurement": "mutagenic call", "setting": "Species/Cell Type: Saccharomyces cerevisiae, Assay Type: Mitotic recombination or gene conversion, Assay Code: YEH+, Evaluation Type: Evaluation A (Pre-1980)", "result": "active; positive"},
      {"measurement": "mutagenic call", "setting": "Species/Cell Type: Salmonella typhimurium, Assay Type: Forward and reverse gene mutation, host-mediated assay, Assay Code: HMA-, Evaluation Type: Evaluation A (Pre-1980)", "result": "inactive; negative"},
      {"measurement": "mutagenic call", "setting": "Species/Cell Type: Syrian hamster embryo (SA7/SHE) cells, Assay Type: Cell transformation, viral enhanced, Assay Code: CT7+, Evaluation Type: Evaluation A (Pre-1980)", "result": "active; positive"},
      {"measurement": "mutagenic call", "setting": "Species/Cell Type: Syrian hamster embryo (SHE) cells, Assay Type: Cell transformation, clonal assay, Assay Code: CTC-, Evaluation Type: Evaluation A (Pre-1980)", "result": "inactive; negative"},
      {"measurement": "mutagenic call", "setting": "Species/Cell Type: Vicia faba, Assay Type: Chromosome aberrations, Assay Code: VIC+, Evaluation Type: Evaluation A (Pre-1980)", "result": "active; positive"}
    ]},
    {"compound": "O=S(=O)(O)c1ccc(N=Nc2ccc(O)c3ccccc23)cc1", "values": [
      {"measurement": "mutagenic call", "setting": "Species/Cell Type: Bacillus subtilis (H17 vs M45), Assay Type: Rec-assay, spot test, DNA effects (bacterial DNA repair), Assay Code: REWT, Evaluation Type: Evaluation A (Pre-1980)", "result": "no conclusion"},
      {"measurement": "mutagenic call", "setting": "Species/Cell Type: Bacillus subtilis (H17 vs M45T), Assay Type: Rec-assay, spot test, DNA effects (bacterial DNA repair), Assay Code: REXT, Evaluation Type: Evaluation A (Pre-1980)", "result": "no conclusion"},
      {"measurement": "mutagenic call", "setting": "Species/Cell Type: Salmonella typhimurium (one or more of the five standard strains: TA98, TA100, TA1535, TA1537, and TA1538), Assay Type: Histidine reverse gene mutation, Ames assay, Assay Code: SAL-, Evaluation Type: Evaluation A (Pre-1980)", "result": "inactive; negative"}
    ]}
  ]
}
